Patent US11566057B2, “Long-acting co-agonists of the glucagon and GLP-1 receptors” (Merck Sharp & Dohme Corp., priority 2017, dated 2023)
Read-outs that look alike come from different tables or passages of the source. Numbered stars: 1 amine (or outer) side, 2 acyl side, 3 side chain; on linkers, the order of the positions; unused ones are H or OH. Square brackets hold non-standard residues; d marks the D form. Side chains are listed from the residue outwards. Peptide text beside a SMILES is read from it. * marks the point of attachment. C20 diacid = O=C(O)CCCCCCCCCCCCCCCCCCC(=O)*; Phe(4-CH2NH2) = NCc1ccc(C[C@H](N)C(=O)O)cc1; C18 diacid = O=C(O)CCCCCCCCCCCCCCCCC(=O)*; C16 diacid = O=C(O)CCCCCCCCCCCCCCC(=O)*; γGlu = O=C(O)[C@H](CCC(=O)[*:2])N[*:1]; Met(O2) = CS(=O)(=O)CC[C@H](N)C(=O)O; αMeD = C[C@](N)(CC(=O)O)C(=O)O; αMeS = C[C@](N)(CO)C(=O)O; AEEA = NCCOCCOCC(=O)O; Aib = CC(C)(N)C(=O)O

Columns and labels:
human GCGR = target: T1, human GCGR (Homo sapiens, UniProt P47871); assay: cAMP activity assay at the Glucagon receptor (GCGR); type: cell-based; conditions: for hGCGR/hGLP1R (hTone): ratio of GCGR EC50 to GLP1R EC50
T1 construct: expressed in transfected cells; growth medium holds Blasticidin and Hygromycin
T1 sequence (P47871 26-477): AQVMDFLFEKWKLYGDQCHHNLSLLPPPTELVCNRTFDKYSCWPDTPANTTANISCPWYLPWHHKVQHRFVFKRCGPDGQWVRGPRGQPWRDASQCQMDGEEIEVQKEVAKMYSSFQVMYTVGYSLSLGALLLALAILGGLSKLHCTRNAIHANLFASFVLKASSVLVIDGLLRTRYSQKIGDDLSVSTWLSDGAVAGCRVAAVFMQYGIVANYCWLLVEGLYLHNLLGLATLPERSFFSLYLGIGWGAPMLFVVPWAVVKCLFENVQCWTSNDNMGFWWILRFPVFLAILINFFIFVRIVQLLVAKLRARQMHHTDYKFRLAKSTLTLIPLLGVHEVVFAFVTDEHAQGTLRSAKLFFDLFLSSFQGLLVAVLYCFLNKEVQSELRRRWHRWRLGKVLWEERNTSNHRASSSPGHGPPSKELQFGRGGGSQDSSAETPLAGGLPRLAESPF
Method in brief: (§1)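 Peptides serially diluted from DMSO (10 points) and added to frozen-stock cells bearing human GLP1R (10,000 cells/well) or GCGR (30,000 cells/well), 1 h at RT, dark. EC50 by four-parameter logistic fit of HitHunter cAMPXS luminescence, read following overnight RT incubation.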

human GLP1R = target: T2, human GLP1R (Homo sapiens, UniProt P43220); assay: cAMP activity assay at the GLP-1 receptor (GLP1R); type: cell-based
T2 construct: expressed in transfected cells; growth medium holds Blasticidin and Hygromycin
T2 sequence (P43220 24-463): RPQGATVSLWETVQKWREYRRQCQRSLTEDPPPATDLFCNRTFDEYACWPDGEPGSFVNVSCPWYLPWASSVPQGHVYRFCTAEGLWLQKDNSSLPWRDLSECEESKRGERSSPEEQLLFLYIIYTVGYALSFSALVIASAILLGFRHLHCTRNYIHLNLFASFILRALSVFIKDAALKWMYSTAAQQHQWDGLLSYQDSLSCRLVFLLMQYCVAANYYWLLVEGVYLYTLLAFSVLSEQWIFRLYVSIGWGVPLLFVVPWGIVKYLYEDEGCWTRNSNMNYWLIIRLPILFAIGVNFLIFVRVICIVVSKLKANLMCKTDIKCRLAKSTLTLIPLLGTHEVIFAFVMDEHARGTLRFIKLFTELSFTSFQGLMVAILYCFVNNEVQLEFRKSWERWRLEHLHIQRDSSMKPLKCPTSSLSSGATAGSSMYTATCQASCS
Method in brief: as §1

[1] = summary statement: EC50 at each of the glucagon and GLP-1 receptors, read-out: EC50 at the glucagon receptor
[2] = summary statement: EC50 at each of the glucagon and GLP-1 receptors, read-out: EC50 at the GLP-1 receptor
[3] = cells expressing human GCGR, cAMP production, buffer with or without 20% human serum (not stated which), read-out: GCGR EC50 human
[4] = cells expressing human GLP1R, cAMP production, buffer with or without 20% human serum (not stated which), read-out: GLP1R EC50 human

Row | hGCGR/hGLP1R (hTone) (human GCGR) | EC50 (human GCGR; [1]) | EC50 (human GLP1R; [2]) | EC50 (human GCGR; [3]) | EC50 (human GLP1R; [4]) | Compound
1 | 0.4 | < 5 nM | < 5 nM | – | – | CC(C)C[C@H](NC(=O)[C@H](Cc1c[nH]c2ccccc12)NC(=O)[C@H](CCCCNC(=O)COCCOCCNC(=O)COCCOCCNC(=O)CC[C@H](NC(=O)CCCCCCCCCCCCCCC(=O)O)C(=O)O)NC(=O)[C@@H](NC(=O)[C@H](Cc1ccccc1)NC(=O)[C@H](CC(=O)O)NC(=O)[C@H](CCC(N)=O)NC(=O)[C@H](C)NC(=O)[C@H](C)NC(=O)[C@H](CCCNC(=N)N)NC(=O)C(C)(C)NC(=O)[C@H](CC(=O)O)NC(=O)[C@H](CC(C)C)NC(=O)[C@H](Cc1ccc(O)cc1)NC(=O)[C@H](CCCCN)NC(=O)[C@H](CO)NC(=O)[C@H](Cc1ccc(O)cc1)NC(=O)[C@H](CC(=O)O)NC(=O)[C@H](CO)NC(=O)[C@@H](NC(=O)[C@H](Cc1ccccc1)NC(=O)[C@@H](NC(=O)CNC(=O)[C@H](CCC(N)=O)NC(=O)C(C)(C)NC(=O)[C@@H](N)Cc1c[nH]cn1)[C@@H](C)O)[C@@H](C)O)C(C)C)C(=O)N[C@@H](CCS(C)(=O)=O)C(=O)N[C@@H](CCC(=O)N[C@H](C(N)=O)[C@@H](C)O)C(=O)O [TP828] (H-H[Aib]QGTFTSDYSKYLD[Aib]RAAQDFVK([AEEA-AEEA-γGlu-C16 diacid])WL[Met(O2)][γGlu]T-NH2)
2 | – | – | – | > 4.9 nM | 0.18 nM | CC(C)C[C@H](NC(=O)[C@H](Cc1ccc(O)cc1)NC(=O)[C@H](CCCCN)NC(=O)[C@H](CO)NC(=O)[C@H](Cc1ccc(O)cc1)NC(=O)[C@H](CC(=O)O)NC(=O)[C@H](CO)NC(=O)[C@@H](NC(=O)[C@H](Cc1ccccc1)NC(=O)[C@@H](NC(=O)CNC(=O)[C@H](CCC(N)=O)NC(=O)C(C)(C)NC(=O)[C@@H](N)Cc1c[nH]cn1)[C@@H](C)O)[C@@H](C)O)C(=O)N[C@@H](CC(=O)O)C(=O)N[C@@H](CCC(=O)O)C(=O)N[C@@H](CCCNC(=N)N)C(=O)N[C@@H](C)C(=O)N[C@@H](C)C(=O)N[C@@H](CCCCN)C(=O)N[C@@H](CC(=O)O)C(=O)N[C@@H](Cc1ccccc1)C(=O)N[C@H](C(=O)N[C@@H](CCCCNC(=O)COCCOCCNC(=O)COCCOCCNC(=O)CC[C@H](NC(=O)CCCCCCCCCCCCCCCCC(=O)O)C(=O)O)C(=O)N[C@@H](Cc1c[nH]c2ccccc12)C(=O)N[C@@H](CC(C)C)C(=O)N[C@@H](CCS(C)(=O)=O)C(=O)N[C@@H](CC(=O)O)C(=O)N[C@H](C(N)=O)[C@@H](C)O)C(C)C [TP701] (H-H[Aib]QGTFTSDYSKYLDERAAKDFVK([AEEA-AEEA-γGlu-C18 diacid])WL[Met(O2)]DT-NH2)
3 | <0.15 | – | – | 0.73 nM | 4.95 nM | CC(C)C[C@H](NC(=O)[C@H](Cc1c[nH]c2ccccc12)NC(=O)[C@H](CCC(N)=O)NC(=O)[C@@H](NC(=O)[C@H](Cc1ccccc1)NC(=O)[C@H](CC(=O)O)NC(=O)[C@H](CCCCNC(=O)COCCOCCNC(=O)COCCOCCNC(=O)CC[C@H](NC(=O)CCCCCCCCCCCCCCCCCCC(=O)O)C(=O)O)NC(=O)[C@H](C)NC(=O)[C@H](C)NC(=O)[C@H](CCCNC(=N)N)NC(=O)C(C)(C)NC(=O)[C@H](CC(=O)O)NC(=O)[C@H](CC(C)C)NC(=O)[C@H](Cc1ccc(O)cc1)NC(=O)[C@H](CCCCN)NC(=O)[C@H](CO)NC(=O)[C@H](Cc1ccc(O)cc1)NC(=O)[C@H](CC(=O)O)NC(=O)[C@H](CO)NC(=O)[C@@H](NC(=O)[C@H](Cc1ccccc1)NC(=O)[C@@H](NC(=O)CNC(=O)[C@H](CCC(N)=O)NC(=O)[C@](C)(CO)NC(=O)[C@@H](N)Cc1c[nH]cn1)[C@@H](C)O)[C@@H](C)O)C(C)C)C(=O)N[C@@H](CCS(C)(=O)=O)C(=O)N[C@@H](CC(=O)O)C(=O)N[C@H](C(N)=O)[C@@H](C)O [TP593] (H-H[αMeS]QGTFTSDYSKYLD[Aib]RAAK([AEEA-AEEA-γGlu-C20 diacid])DFVQWL[Met(O2)]DT-NH2)
4 | 0.9 | < 5 nM | < 5 nM | – | – | CC(C)C[C@H](NC(=O)[C@H](Cc1ccc(O)cc1)NC(=O)[C@H](CCCCN)NC(=O)[C@H](CO)NC(=O)[C@H](Cc1ccc(O)cc1)NC(=O)[C@H](CC(=O)O)NC(=O)[C@H](CO)NC(=O)[C@@H](NC(=O)[C@H](Cc1ccccc1)NC(=O)[C@@H](NC(=O)CNC(=O)[C@H](CCC(N)=O)NC(=O)C(C)(C)NC(=O)[C@@H](N)Cc1c[nH]cn1)[C@@H](C)O)[C@@H](C)O)C(=O)N[C@@H](CC(=O)O)C(=O)NC(C)(C)C(=O)N[C@@H](CCCNC(=N)N)C(=O)N[C@@H](C)C(=O)N[C@@H](C)C(=O)N[C@@H](CCCCNC(=O)COCCOCCNC(=O)COCCOCCNC(=O)CC[C@H](NC(=O)CCCCCCCCCCCCCCCCCCC(=O)O)C(=O)O)C(=O)N[C@@H](CC(=O)O)C(=O)N[C@@H](Cc1ccccc1)C(=O)N[C@H](C(=O)N[C@@H](CCC(N)=O)C(=O)N[C@@H](Cc1c[nH]c2ccccc12)C(=O)N[C@@H](CC(C)C)C(=O)N[C@@H](CCS(C)(=O)=O)C(=O)N[C@@](C)(CC(=O)O)C(=O)N[C@H](C(N)=O)[C@@H](C)O)C(C)C [TP588] (H-H[Aib]QGTFTSDYSKYLD[Aib]RAAK([AEEA-AEEA-γGlu-C20 diacid])DFVQWL[Met(O2)][αMeD]T-NH2; N-terminus assumed)
5 | 0.7 | < 5 nM | < 5 nM | 0.35 nM | – | CC(C)C[C@H](NC(=O)[C@H](Cc1ccc(O)cc1)NC(=O)[C@H](CCCCN)NC(=O)[C@H](CO)NC(=O)[C@H](Cc1ccc(O)cc1)NC(=O)[C@H](CC(=O)O)NC(=O)[C@H](CO)NC(=O)[C@@H](NC(=O)[C@H](Cc1ccccc1)NC(=O)[C@@H](NC(=O)CNC(=O)[C@H](CCC(N)=O)NC(=O)C(C)(C)NC(=O)[C@@H](N)Cc1c[nH]cn1)[C@@H](C)O)[C@@H](C)O)C(=O)N[C@@H](CC(=O)O)C(=O)N[C@@H](C)C(=O)N[C@@H](CCCNC(=N)N)C(=O)N[C@@H](C)C(=O)N[C@@H](C)C(=O)N[C@@H](CCCCNC(=O)COCCOCCNC(=O)COCCOCCNC(=O)CC[C@H](NC(=O)CCCCCCCCCCCCCCCCC(=O)O)C(=O)O)C(=O)N[C@@H](CC(=O)O)C(=O)N[C@@H](Cc1ccccc1)C(=O)N[C@H](C(=O)N[C@@H](CCC(N)=O)C(=O)N[C@@H](Cc1c[nH]c2ccccc12)C(=O)N[C@@H](CC(C)C)C(=O)N[C@@H](CCS(C)(=O)=O)C(=O)N[C@@H](CCC(=O)O)C(=O)N[C@H](C(N)=O)[C@@H](C)O)C(C)C [TP672] (H-H[Aib]QGTFTSDYSKYLDARAAK([AEEA-AEEA-γGlu-C18 diacid])DFVQWL[Met(O2)]ET-NH2; N-terminus assumed)
6 | 0.3 | < 5 nM | < 5 nM | 0.22 nM | – | CC(C)C[C@H](NC(=O)[C@H](Cc1c[nH]c2ccccc12)NC(=O)[C@H](CCC(N)=O)NC(=O)[C@@H](NC(=O)[C@H](Cc1ccccc1)NC(=O)[C@H](CC(=O)O)NC(=O)[C@H](CCCCNC(=O)COCCOCCNC(=O)COCCOCCNC(=O)CC[C@H](NC(=O)CCCCCCCCCCCCCCCCC(=O)O)C(=O)O)NC(=O)[C@H](C)NC(=O)[C@H](C)NC(=O)[C@H](CCCNC(=N)N)NC(=O)C(C)(C)NC(=O)[C@H](CC(=O)O)NC(=O)[C@H](CC(C)C)NC(=O)[C@H](Cc1ccc(O)cc1)NC(=O)[C@H](CCCCN)NC(=O)[C@H](CO)NC(=O)[C@H](Cc1ccc(O)cc1)NC(=O)[C@H](CC(=O)O)NC(=O)[C@H](CO)NC(=O)[C@@H](NC(=O)[C@H](Cc1ccccc1)NC(=O)[C@@H](NC(=O)CNC(=O)[C@H](CCC(N)=O)NC(=O)C(C)(C)NC(=O)[C@@H](N)Cc1c[nH]cn1)[C@@H](C)O)[C@@H](C)O)C(C)C)C(=O)N[C@@H](CCS(C)(=O)=O)C(=O)N[C@@H](CCC(=O)O)C(=O)N[C@H](C(N)=O)[C@@H](C)O [TP673] (H-H[Aib]QGTFTSDYSKYLD[Aib]RAAK([AEEA-AEEA-γGlu-C18 diacid])DFVQWL[Met(O2)]ET-NH2; N-terminus assumed)
7 | 0.5 | < 5 nM | < 5 nM | – | – | CC(C)C[C@H](NC(=O)[C@H](Cc1ccc(O)cc1)NC(=O)[C@H](CCCCN)NC(=O)[C@H](CO)NC(=O)[C@H](Cc1ccc(CNC(=O)COCCOCCNC(=O)CC[C@H](NC(=O)CCCCCCCCCCCCCCCCC(=O)O)C(=O)O)cc1)NC(=O)[C@H](CC(=O)O)NC(=O)[C@H](CO)NC(=O)[C@@H](NC(=O)[C@H](Cc1ccccc1)NC(=O)[C@@H](NC(=O)CNC(=O)[C@H](CCC(N)=O)NC(=O)C(C)(C)NC(=O)[C@@H](N)Cc1c[nH]cn1)[C@@H](C)O)[C@@H](C)O)C(=O)N[C@@H](CC(=O)O)C(=O)N[C@@H](C)C(=O)N[C@@H](CCCNC(=N)N)C(=O)N[C@@H](C)C(=O)N[C@@H](C)C(=O)N[C@@H](CCC(N)=O)C(=O)N[C@@H](CC(=O)O)C(=O)N[C@@H](Cc1ccccc1)C(=O)N[C@H](C(=O)N[C@@H](CCC(N)=O)C(=O)N[C@@H](Cc1c[nH]c2ccccc12)C(=O)N[C@@H](CC(C)C)C(=O)N[C@@H](CCS(C)(=O)=O)C(=O)N[C@@H](CC(=O)O)C(=O)N[C@H](C(N)=O)[C@@H](C)O)C(C)C [TP623] (H-H[Aib]QGTFTSD[Phe(4-CH2NH2)]([AEEA-γGlu-C18 diacid])SKYLDARAAQDFVQWL[Met(O2)]DT-NH2)
